Assays:
[1] = tested on: NRK-49F cells; test: Atomic force microscope measurement of stiffness and morphology of NRK-49F cells and collagen fibers in the in vitro fibrosis model (coaxial AFM/confocal system); assay type: cell-based, rat
Description: (§1) To clearly distinguish the cells from surrounding proteins, the method employs multiple fluorescent proteins for labeling. In this embodiment, rat renal fibroblasts (NRK-49F cells) were transfected to express Lifeact-RFP and cultured on collagen gels conjugated with FITC-labeled type-I collagen. The cultures were divided into a group treated with TGF-β1 and a control group without TGF-β1. TGF-β1 was added to mimic the activation of fibroblasts into myofibroblasts in fibrotic conditions such as kidney fibrosis and keloid, enabling subsequent analysis of cell contraction and collagen fiber interactions.
(§2) In this embodiment, the coaxial microscope system combines a laser-scanning confocal microscope (FV3000, Olympus) with sharp tip probe-equipped atomic-force microscope (BioScope Resolve, Bruker) […]. Before measurement, the spring constant, deflection sensitivity, and position of the probe were calibrated using No-Touch mode in AFM and vision in confocal microscopy.
Additionally, prior to measurement, a hydrophobic material is coated onto the sharp tip probe of the atomic force microscope. This prevents the probe from adhering to collagen fibers during scanning of the sample, thereby maintaining measurement accuracy.
After calibration, the regions of interest can be selected, captured, and measured using the coaxial microscope system. The elastic moduli are calculated from force-distance curves using a modified Sneddon model implemented in Bruker data-analysis software. Collagen fibers and cells are further analyzed for morphology and rigidity using NanoScope Analysis software (v1.9, Bruker).
FIG. 2 schematically illustrates a simplified experimental workflow for selecting the regions of interest and examining the sample using a coaxial microscope system of the laser scanning confocal microscope and the atomic force microscope. FITC-labeled collagen gels are prepared and seeded with Lifeact-RFP-transfected NRK-49F cells. After 24 hours of culture, drugs are added and media are refreshed. The prepared sample is mounted on the coaxial microscope system, the scan area is marked, and the sample is adjusted to the pre-marked area. Subsequently, images are acquired using the coaxial confocal microscope and atomic force microscope. Finally, the fluorescence and morphological images are merged, and the mechanical properties of the cells and collagen fibers are analyzed using software

[2] = tested on: NRK-49F cells; test: Confocal fluorescence imaging of FITC-labeled collagen fibers in NRK-49F cultures (FITC content); assay type: cell-based, rat; conditions: after TGF-β1 stimulation vs control; FIG. 3 and FIG. 4 (FITC content)
Description: as §1, §2
FIG. 2 schematically illustrates a simplified experimental workflow for selecting the regions of interest and examining the sample using a coaxial microscope system of the laser scanning confocal microscope and the atomic force microscope. […] Finally, the fluorescence and morphological images are merged, and the mechanical properties of the cells and collagen fibers are analyzed using software

[3] = after TGF-β1 treatment vs control, AFM images, figure not shown

transforming growth factor β1 [TGF-β1]
increase in stiffness of collagen fibers ([1]; TGF-β1-treated vs control without TGF-β1, FITC-labeled type-I collagen gel seeded with Lifeact-RFP NRK-49F cells, AFM elastic modulus, FIG. 6): approximately 6.5 fold | increase in stiffness of NRK-49F cells ([1]; TGF-β1-treated vs control without TGF-β1, Lifeact-RFP NRK-49F cells on collagen gel, AFM elastic modulus, FIG. 6): ~6.7 fold | angle between collagen fibers and NRK-49F cells (A) [1, 3]: no significant difference | diameter of collagen fibers (D1) [1, 3]: no significant difference | density of collagen fibers [2]: markedly increased
